Values after ≈ are worked out from the molar mass of the structure shown. Values joined by “and” are separate entries in the source; they are usually repeats but may differ in a detail not shown here. Identical values can stand only once. Values belong to the molecule of their own block, whether it stands above or below them.
Assays:
[1] = cited from earlier work
[2] = Dissolution from suspension, USP <711> apparatus II; assay type: physicochemical; conditions: suspension of Example 7, paddle 25 rpm, 0.3% SLS aqueous solution
Method: Non-micronized form Y and non-micronized form I were incorporated into formulations having compositions and being prepared according to Example 7.
Dissolution of Form Y and Form I from those formulations was tested according to USP 32 (2009) method <711> (USP apparatus II (Paddle); 25 rpm; dissolution medium: 0.3% SLS aqueous solution). Posaconzole concentrations were determined with an online photometer (UV absorption at 260 nm).

[3] = Particle size distribution (Malvern, laser diffraction) in suspension; assay type: physicochemical; conditions: for Mean particle size (D4,3-value) / Median particle size (d (0.5)-value): non-micronized form, in suspension, after 5 min ultrasonic treatment
Method: Crystalline form Y in a non-micronized form as obtained by Example 1 was used to prepare 25 ml of a suspension as follows:
The suspension was prepared analogously to the method described in Example 6 up to and including the addition of glycerol and liquid glucose. Subsequently, titanium oxide was added under mixing with a suitable homogenizer, followed by the addition of the cherry flavour and of the remaining portion of 56% of the final amount of purified water under mixing until a uniform suspension was obtained.
25 ml of a similar suspension, but without cherry flavour and using 12.148 g of purified water, was prepared analoguously using non-micronized crystalline form I of posaconazole.
The particle size distribution (Malvern) was measured according to the USP <429> and EP 2.9.31. based on the diffraction of laser by particles using a Mastersizer 2000S liquid dispersion system. The particle size measurement was started after ultrasonic treatment of the sample for 5 min.

[4] = Specific surface measurement, BET method; assay type: physicochemical; conditions: for Specific Surface: nitrogen at 77° K, non-micronized
Method: Specific surface measurement was performed with the equipment NOVA 2000 as commercially available from Quantachrome Instruments using the BET method and Nitrogen as the absorbed gas at 77° K (i.e. −196.15° C.) as described e.g. by Medema J, Campagne A.: A Simple Method to Determine Cumulative Surface-Area Distributions of Porous Solids; Journal of Catalysis, Volume 8, Issue 2, pp. 120, 1967.

[5] = Equilibrium solubility method in water; assay type: physicochemical
Method: The solubility of form Y was determined by the equilibrium solubility method, which employed a saturated solution of form Y, obtained by stirring 250 mg form Y in 6 ml water over night. The sample was filtered through a 0.45 μm membrane filter and the concentration of form Y in the filtrate was measured using a Perkin Elmer Lambda 35 UV/VIS spectrophotometer (λ=260 nm).

[6] = Solid state stability of form Y (HPLC assay, polymorphic form); assay type: physicochemical
Method: HPLC assay was performed by applying the following conditions: • Column: ZORBAX XDB-C18 Rapid Resolution HT, 1.8 μm, 50×4.6 mm (Agilent Technologies) • Eluent A: Dilute 2 ml of acetic acid (99-100%) with water and fill up to 1000 ml with water. Adjust pH to 6.5 with 2.5% ammonia. • Eluent B: water/acetonitrile=50/50 (v/v) • Flow rate: 0.8 ml/min • Temperature: 40° C. • Detection: UV at 260 nm • Gradient:
The solid state stability of form Y was determined by storing approximately 1.0 g of the material in a glass bottle at a) 60° C./100% Relative Humidity (RH), open exposure, for 24 hours and b) at 140° C., closed, for 3 days.
The material was assayed by HPLC for final content and degradation products.

[7] = Stability of an aqueous suspension of form Y; assay type: physicochemical; conditions: 120 mg in 3 ml water, room temperature, 4 days
Method: 120 mg form Y were suspended in 3 ml water and the suspension was stirred at room temperature.

[8] = Stability of form Y within a pharmaceutical formulation (XRPD); assay type: physicochemical; conditions: suspension stored at room temperature for 7 weeks
Method: 25 ml of a suspension containing form Y were prepared as follows:
40% of the final amount of Polysorbat 80 and 40% of the final amount of simethicon were mixed and dissolved and/or dispersed in about 12% of the final amount of purified water and homogenized with Ultra Turrax (30 seconds; 27,000 rpm). Subsequently, 1 g of form Y of posaconazole were suspended or dispersed in this mixture under homogenization by Ultra Turrax (27,000 rpm, 2 minutes). The remaining 60% of Polysorbat 80 and of simethicon and 32% of the final amount of the purified water were added and mixed followed by the addition of sodium benzoate, sodium citrate dehydrate and citric acid monohydrate. After further mixing, xanthan gum was added to the mixture under stirring, followed by a 30 minutes phase of hydratization without mixing. Subsequently, glycerol and liquid glucose and of the remaining portion of 56% of the final amount of purified water were added under mixing until a uniform suspension was obtained.
This suspension was stored at room temperature for 7 weeks. A sample of approximately 1 g of the suspension was dried under vacuum over night at room temperature. […]

[9] = Moisture sorption isotherm; assay type: physicochemical; conditions: 0-95% RH, 25° C.
Method: The moisture sorption isotherm was recorded with a SPS-11 moisture sorption analyzer (MD Mess-technik, Ulm, D). The measurement cycle was started at 0% relative humidity (RH), increased in 10% steps up to 90% RH and in a 5% step up to 95% RH. The equilibrium condition for each step was set to a constant mass ±0.003% over 49 min. The temperature was 25±0.1° C.

[10] = listed as crystalline form Y of posaconazole
[11] = 60° C./100% RH, open exposure, 24 hours

Structure (SMILES): CC[C@@H]([C@H](C)O)n1ncn(-c2ccc(N3CCN(c4ccc(OC[C@@H]5CO[C@@](Cn6cncn6)(c6ccc(F)cc6F)C5)cc4)CC3)cc2)c1=O [posaconazole, 2,5-anhydro-1,3,4-trideoxy-2-C-(2,4-difluorophenyl)-4-[[4-[4-[4-[1-[(1S,2S)-1-ethyl-2-hydroxypropyl]-1,5-dihydro-5-oxo-4H-1,2,4-triazol-4-yl]phenyl]-1-piperazinyl]phenoxy]methyl]-1-(1H-1,2,4-triazol-1-yl)-D-threopentitol]
log P [1]: > 3

dissolution compared to non-micronized form I [2]: clearly faster dissolution | fold smaller mean particle size compared to non-micronized form I ([3]; non-micronized): about 4 fold | fold smaller median particle size compared to non-micronized form I ([3]; non-micronized): about 5 fold | Mean particle size (D4,3-value) [3]: 9.9 μm | Median particle size (d (0.5)-value) [3]: 6.0 μm | Mean particle size (D4,3-value) [3, 10]: about 10±2 μm | Median particle size (d (0.5)-value) [3, 10]: about 6±2 μm | fold larger specific area compared to crystalline form I [4]: about 2.4 fold | Specific Surface ([4]; listed as Crystalline Form Y of posaconazole): 3.6 m^2/g and 3.7 m^2/g | Specific Surface [4, 10]: about 4±1 m^2/g | water solubility of form Y relative to form I (times higher) [5]: about two | solubility ([5]; thermodynamic from solid, saturated solution stirred over night, 0.45 μm filtrate, UV 260 nm): 1.5 µg/mL (≈ 2.14 µM) | HPLC assay (% initial) [6, 11]: 99.9% | degradation [6, 11]: No significant degradation observed | HPLC assay (% initial) ([6]; 140° C., closed, 3 days): 99.9% | degradation ([6]; 140° C., closed, 3 days): No significant degradation observed | water uptake [9]: ≤ 0.4%
Structure (SMILES): CC[C@@H]([C@H](C)O)n1ncn(-c2ccc(N3CCN(c4ccc(OC[C@@H]5CO[C@@](Cn6cncn6)(c6ccc(F)cc6F)C5)cc4)CC3)cc2)c1=O [Crystalline Form Y, posaconazole]
polymorphic conversion ([6]; 24 hours at 100% RH, 60° C.): not converted into another polymorphic form | physicochemical properties of the solid after stirring in water [7]: the same as the physicochemical properties of form Y obtained in Example 1 | polymorphic conversion in suspension (XRPD) [8]: no conversion to another polymorphic form had occurred

Mean particle size (D4,3-value) [3]: 35.1 μm | Median particle size (d (0.5)-value) [3]: 31.3 μm | Specific Surface ([4]; listed as Crystalline Form I of posaconazole): 1.5 m^2/g and 1.6 m^2/g
Structure (SMILES): CC[C@@H]([C@H](C)O)n1ncn(-c2ccc(N3CCN(c4ccc(OC[C@@H]5CO[C@@](Cn6cncn6)(c6ccc(F)cc6F)C5)cc4)CC3)cc2)c1=O [Crystalline Form I, posaconazole]

— patent publication US8563555B2, “Pharmaceutical compositions containing a crystalline form of posaconazole” (Sandoz AG, priority 2008, dated 2013)
